Laboratory results taken from US12128079B2, “Enteric aerobization therapy” (LPOXY THERAPEUTICS, INC., priority 2021, dated 2024).
“Also recorded” adds a separate entry of the source. Like-named read-outs stand apart in the source and are kept apart here.

Key:
[1] = up to the maximum bolus tested, 200 microliters every 6 hours (8 mL/kg per bolus; 32 mL/kg/day)
Protocol: In a separate experiment using the above conditions the tolerance of bolus injection of 100% oxygen gas was tested.

[2] = tested on: Clostridioides difficile ATCC 43255; conditions: for clinical severity / clinical observations versus infection control group: FIGS. 7-10; for animals showing clinical signs of infection (recurrence) in the 2nd week after inoculation and treatment: days 8-14; for survival: mice followed 14 days after inoculation, treatment day 0 to day 4; for onset of action / cure rate: mouse CDI model; for cure rate: 14 days after inoculation
Description: Thirty C57BL/6 female mice (18-22 g) fitted with duodenal catheters externalized and fitted with access button ports were purchased from Charles River Laboratories and singly housed in a temperature and humidity-controlled room with a 12-hour light cycle. The mice were divided into 3 groups of 10. All procedures used in these experimental protocols were in compliance with the Animal Welfare Act, the Guide for the Care and Use of Laboratory Animals, and the Office of Laboratory Animal Welfare.
The mice were pretreated with an antibiotic cocktail in their drinking water for 8 consecutive days. This antibiotic cocktail was composed of 1% glucose, 500 mcg/mL kanamycin, 44 mcg/mL gentamicin, 1062.5 units per milliliter colistin, 269 mcg/mL metronidazole, 156 mcg/mL ciprofloxacin, 100 mcg/mL ampicillin, and 56 mcg/mL vancomycin. The antibiotic cocktail and drinking water were replaced every 2 to 3 days. Five days prior to infection the antibiotic water was removed and normal drinking water was provided to the animals. Three days prior to infection the animals received a single dose of clindamycin 10 mg per kilogram via oral administration in a volume of 10 mL per kilogram.
On study Day 0 mice were inoculated with the bacterial suspension of 5×10^5 CFU Clostridioides difficile ATCC 43255 via oral gavage. Eight hours after inoculation administration of vehicle, antibiotic control, and test article was initiated according to the following. The vehicle a.k.a. infection control group of 10 mice received 80 μL per hour 100% pure nitrogen gas via duodenal catheter. The infection control group of 10 mice received 50 mg/kg vancomycin via oral gavage once daily. […] Administration was continued from study day 0 to study day 4, a total of 5 days. The mice were followed for 14 days after inoculum recording daily weights and clinical observations. Animals that appeared severely moribund were euthanized. At the end of the study all animals were humanely euthanized.

Structure (SMILES)	adverse effects of bolus injection [1]	clinical severity / clinical observations versus infection control group [2]	clinical severity / clinical observations versus infection control group ([2]; listed as Enteric aerobization therapy)	animals showing clinical signs of infection (recurrence) in the 2nd week after inoculation and treatment [2]	adverse effects due to gas infusion ([2]; infusion via duodenal catheter 3.2 mL/kg/hr, 76.8 mL/kg/day)	survival [2]	onset of action [2]	cure rate [2]	animals showing clinical signs of infection (recurrence) in the 2nd week after inoculation and treatment ([2]; listed as antibiotic control group)
O=O [EAT, oxygen]	No adverse effects were observed	fewer sick animals compared to the infection control group; also recorded: mildly ill compared to the infection control group	reduces the severity of disease, accelerates recovery	no recurrent infections	no adverse effects	100%	slower onset of action	100%	
CN[C@H](CC(C)C)C(=O)N[C@H]1C(=O)N[C@@H](CC(N)=O)C(=O)N[C@H]2C(=O)N[C@H]3C(=O)N[C@H](C(=O)N[C@H](C(=O)O)c4cc(O)cc(O)c4-c4cc3ccc4O)[C@H](O)c3ccc(c(Cl)c3)Oc3cc2cc(c3O[C@@H]2O[C@H](CO)[C@@H](O)[C@H](O)[C@H]2O[C@H]2C[C@](C)(N)[C@H](O)[C@H](C)O2)Oc2ccc(cc2Cl)[C@H]1O [vancomycin, reference compound]				70%		100%	more rapid onset of action	30%	Seventy
